Data from article PMC11509018, “Evaluation of the Role of Tanshinone I in an In Vitro System of Charcot-Marie-Tooth Disease Type 2N” (International Journal of Molecular Sciences, 2024).

Target: T1, AlaRS^R329H (Homo sapiens, UniProt P49588, R329H)
T1 construct: made in house; host or cells: E. coli BL21 (DE3), pET-21a
T1 sequence (P49588 1-968 R329H): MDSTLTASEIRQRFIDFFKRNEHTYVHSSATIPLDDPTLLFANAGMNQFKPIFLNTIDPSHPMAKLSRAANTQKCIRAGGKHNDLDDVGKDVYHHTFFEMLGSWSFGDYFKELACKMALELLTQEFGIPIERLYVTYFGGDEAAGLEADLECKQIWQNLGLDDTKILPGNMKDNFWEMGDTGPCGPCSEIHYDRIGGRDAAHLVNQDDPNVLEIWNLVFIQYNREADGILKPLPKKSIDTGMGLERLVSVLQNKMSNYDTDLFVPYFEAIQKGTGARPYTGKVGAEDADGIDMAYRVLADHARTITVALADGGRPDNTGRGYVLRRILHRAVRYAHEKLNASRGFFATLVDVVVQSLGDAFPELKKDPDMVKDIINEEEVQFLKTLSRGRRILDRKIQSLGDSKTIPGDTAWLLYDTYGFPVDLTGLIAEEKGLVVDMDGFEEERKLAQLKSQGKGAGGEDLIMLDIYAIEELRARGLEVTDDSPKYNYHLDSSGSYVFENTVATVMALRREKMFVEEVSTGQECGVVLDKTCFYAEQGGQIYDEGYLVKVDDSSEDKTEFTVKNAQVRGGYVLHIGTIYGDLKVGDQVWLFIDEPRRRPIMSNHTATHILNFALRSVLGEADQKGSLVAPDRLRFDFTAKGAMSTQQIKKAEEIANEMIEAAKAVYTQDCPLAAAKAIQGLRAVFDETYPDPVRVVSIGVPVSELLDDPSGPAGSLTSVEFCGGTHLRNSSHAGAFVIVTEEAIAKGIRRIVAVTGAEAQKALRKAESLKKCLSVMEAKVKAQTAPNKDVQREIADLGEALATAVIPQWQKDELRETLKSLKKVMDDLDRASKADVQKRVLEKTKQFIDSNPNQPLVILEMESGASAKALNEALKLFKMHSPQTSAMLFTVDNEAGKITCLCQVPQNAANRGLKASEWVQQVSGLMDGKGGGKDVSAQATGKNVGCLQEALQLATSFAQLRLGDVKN
Assay: Thermal shift assay (TSA)
Format: binding
Conditions: positive hit = shift of more than 2.5 °C
From the text: In this assay, with increasing temperatures, the protein undergoes thermal unfolding, exposing its hydrophobic core. Subsequently, a fluorescent dye binds to these hydrophobic regions, becoming unquenched. Fluorescence is closely monitored, and the midpoint of the protein unfolding transition is designated as the Tm. Ligand binding frequently influences protein thermal stability during denaturation. Thus, the ligand binding affinity of any potential inhibitor can be gauged by evaluating the shift in the Tm. In this experiment, we screened a library of 2000 small molecules (Table S1) and classified as positive hits those that caused a shift in the Tm of the mutant protein of more than 2.5 °C. From the TSA, we identified four small molecules that met this criterion (Figure 2A, Table 1). Specifically, Atazanavir sulfate caused a shift of 4.0 °C, Tanshinone I a shift of 3.1 °C, Hederacolchiside A1 a shift of 4.3 °C, and Hexylresorcinol a shift of 5.5 °C (Figure 2B). To assess the impact of small molecules on the thermal stability of mutant proteins, thermal shift assays were performed using a […] (Applied Biosystems, Waltham, MA, USA) with the Protein Thermal Shift™ Kit dye (Thermo Fisher Scientific, Waltham, MA, USA). Each well of a 96-well Optical Reaction Plate (Applied Biosystems) contained 14 μL of thermal shift buffer, 2 μL of diluted thermal shift dye (8×), 2 μL of a 1 mM small molecule solution, and 2 μL of 1 mg/mL protein. Plates were incubated at 4 °C for 1 h before being heated from 25 °C to 95 °C at 1 °C/min. The fluorescence signal of SYPRO orange (excitation/emission: 490/530 nm) was recorded at 30 s intervals to monitor protein denaturation. The melting temperature (Tm), defined as the midpoint of the unfolding transition, was determined from the fluorescence–temperature curve. ΔTm was calculated as the difference in Tm between AlaRS^R329H treated with compounds and the control. Experiments were conducted in triplicate for accuracy. The experiment was repeated three times.

ΔTm (shift between the Tm values of AlaRS^R329H with and without compounds): 3.1 °C
SMILES: Cc1coc2c1C(=O)C(=O)c1c-2ccc2c(C)cccc12 [Tanshinone I]
